Assay results reported in patent publication US8575201B2 (Boehringer Ingelheim International GmbH, priority 2010, dated 2013).

Assays:
[1] = tested on: synthesis of LTB4 in human whole blood; experiment: Human whole blood LTB4 production inhibition assay; format: cell-based; conditions: calcimycin stimulated, read-out: hWB LTB4 IC50
Method: Compounds are additionally tested in a human whole blood assay to determine their ability to inhibit the synthesis of LTB4 in a cellular system. Compounds are combined with heparinized human whole blood and incubated for 15 minutes at 37° C. Calcimycin (20 μM final, prepared in phosphate-buffered saline, pH 7.4) is then added and the mixture is incubated for another 30 minutes at 37° C. The samples are centrifuged for 5 min at low speed (1500×g) and the plasma layer is removed. Plasma LTB4 concentrations are then measured using an antibody-based homogenous time-resolved fluorescence method (CisBio, Bedford, Mass.).

[2] = target: recombinant human FLAP protein (Homo sapiens (Human), UniProt P20292); experiment: FLAP binding assay (Scintillation Proximity Assay, displacement of [125I]L-691,831); conditions: read-out: FLAP SPA IC50
Sequence of recombinant human FLAP protein (P20292 whole entry): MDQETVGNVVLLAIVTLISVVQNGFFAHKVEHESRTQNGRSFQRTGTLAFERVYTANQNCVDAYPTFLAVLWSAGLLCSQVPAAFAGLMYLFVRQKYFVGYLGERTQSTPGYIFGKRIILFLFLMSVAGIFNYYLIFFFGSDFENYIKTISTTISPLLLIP
Method: Assessment of Biological Properties 1. Binding Assay: Compounds are assessed for the ability to bind to FLAP in a binding assay that measures compound-specific displacement of an iodinated (^125I) FLAP inhibitor via a Scintillation Proximity Assay format (adapted from S. Charleson et al., Mol. Pharmacol., 1992, 41, 873-879). […] The cells are lysed with a Dounce homogenizer and the material is centrifuged at 10,000×g for 10 minutes. The supernatant is then collected and centrifuged at 100,000×g for 60 minutes. To prepare membrane protein for an assay, an aliquot of the 100,000×g pellet is resuspended in 1 ml of buffer A, Dounce homogenized, and finally subjected to polytron mixing (30 seconds). […] Mol. Pharmacol., 41, 873-879, 1992) and finally 50 μl of the bead/protein mixture. (final concentrations: beads, 200 μg/well; protein, 5 μg/well; […] The plates are shaken for 2 h before reading on a Microbeta plate reader.

Compound: Nc1ncc(-c2ccc(C3(c4noc(-c5ccc(N6CCN[C@@H](C(=O)O)C6)nc5)n4)CCC3)cn2)cn1 [Example 42, (2R)-4-[5-(3-{1-[6-(2-aminopyrimidin-5-yl)pyridin-3-yl]cyclobutyl}-1,2,4-oxadiazol-5-yl)pyridin-2-yl]piperazine-2-carboxylic acid]
- IC50 [1]: > 5 µM
- IC50 [2]: 0.0077 µM

Compound: Nc1ncc(-c2ccc(C3(c4noc(-c5ccc(N6CC[C@@H](O)C6)nc5)n4)CCC3)cn2)cn1 [Example 43, (3R)-1-[5-(3-{1-[6-(2-aminopyrimidin-5-yl)pyridin-3-yl]cyclobutyl}-1,2,4-oxadiazol-5-yl)pyridin-2-yl]pyrrolidin-3-ol]
- IC50 [1]: 0.17 µM
- IC50 [2]: 0.0012 µM

Compound: C[C@@H](O)CNc1ccc(-c2nc(C3(c4ccc(-c5cnc(N)nc5)nc4)CCC3)no2)cn1 [Example 44, (2R)-1-{[5-(3-{1-[6-(2-aminopyrimidin-5-yl)pyridin-3-yl]cyclobutyl}-1,2,4-oxadiazol-5-yl)pyridin-2-yl]amino}propan-2-ol]
- IC50 [1]: 0.1 µM
- IC50 [2]: 0.0027 µM

Compound: Nc1ncc(-c2ccc(C3(c4noc(-c5ccc(N6CCC[C@@H]6CO)nc5)n4)CCC3)cn2)cn1 [Example 45, {(2R)-1-[5-(3-{1-[6-(2-aminopyrimidin-5-yl)pyridin-3-yl]cyclobutyl}-1,2,4-oxadiazol-5-yl)pyridin-2-yl]pyrrolidin-2-yl}methanol]
- IC50 [1]: 0.75 µM
- IC50 [2]: 0.0031 µM

Compound: C[C@H](O)CNc1ccc(-c2nc(C3(c4ccc(-c5cnc(N)nc5)nc4)CCC3)no2)cn1 [Example 46, (2S)-1-{[5-(3-{1-[6-(2-aminopyrimidin-5-yl)pyridin-3-yl]cyclobutyl}-1,2,4-oxadiazol-5-yl)pyridin-2-yl]amino}propan-2-ol]
- IC50 [1]: 0.11 µM
- IC50 [2]: 0.0024 µM

Compound: CCOC(=O)CCN1CCN(c2ccc(-c3nc(C4(c5ccc(-c6cnc(N)nc6)nc5)CCC4)no3)cn2)CC1 [Example 47, ethyl 3-{4-[5-(3-{1-[6-(2-aminopyrimidin-5-yl)pyridin-3-yl]cyclobutyl}-1,2,4-oxadiazol-5-yl)pyridin-2-yl]piperazin-1-yl}propanoate]
- IC50 [1]: 0.17 µM
- IC50 [2]: 0.0034 µM

Compound: Nc1ncc(-c2ccc(C3(c4noc(-c5ccc(N6CC[C@H](O)C6)nc5)n4)CCC3)cn2)cn1 [Example 48, (3S)-1-[5-(3-{1-[6-(2-aminopyrimidin-5-yl)pyridin-3-yl]cyclobutyl}-1,2,4-oxadiazol-5-yl)pyridin-2-yl]pyrrolidin-3-ol]
- IC50 [1]: 0.14 µM
- IC50 [2]: 0.0022 µM

Compound: Nc1ncc(-c2ccc(C3(c4noc(-c5ccc(N6CCS(=O)(=O)CC6)nc5)n4)CCC3)cn2)cn1 [Example 49, 5-[5-(1-{5-[6-(1,1-dioxidothiomorpholin-4-yl)pyridin-3-yl]-1,2,4-oxadiazol-3-yl}cyclobutyl)pyridin-2-yl]pyrimidin-2-amine]
- IC50 [1]: 0.18 µM
- IC50 [2]: 0.0037 µM

Compound: CS(=O)(=O)N1CCN(c2ccc(-c3nc(C4(c5ccc(-c6cnc(N)nc6)nc5)CCC4)no3)cn2)CC1 [Example 50, 5-{5-[1-(5-{6-[4-(methylsulfonyl)piperazin-1-yl]pyridin-3-yl}-1,2,4-oxadiazol-3-yl)cyclobutyl]pyridin-2-yl}pyrimidin-2-amine]
- IC50 [1]: 0.15 µM
- IC50 [2]: 0.0027 µM

Compound: CS(=O)(=O)CCNc1ccc(-c2nc(C3(c4ccc(-c5cnc(N)nc5)nc4)CCC3)no2)cn1 [Example 51, 5-(5-{1-[5-(6-{[2-(methylsulfonyl)ethyl]amino}pyridin-3-yl)-1,2,4-oxadiazol-3-yl]cyclobutyl}pyridin-2-yl)pyrimidin-2-amine]
- IC50 [1]: 0.15 µM
- IC50 [2]: 0.0048 µM

Compound: CS(=O)(=O)C1CCN(c2ccc(-c3nc(C4(c5ccc(-c6cnc(N)nc6)nc5)CCC4)no3)cn2)C1 (stereo not drawn) [Example 52, 5-{5-[1-(5-{6-[3-(methylsulfonyl)pyrrolidin-1-yl]pyridin-3-yl}-1,2,4-oxadiazol-3-yl)cyclobutyl]pyridin-2-yl}pyrimidin-2-amine]
- IC50 [1]: 0.18 µM
- IC50 [2]: 0.0026 µM

Compound: Nc1ncc(-c2ccc(C3(c4noc(-c5ccc(N6CCN(CCC(=O)O)CC6)nc5)n4)CCC3)cn2)cn1 [Example 53, 3-{4-[5-(3-{1-[6-(2-aminopyrimidin-5-yl)pyridin-3-yl]cyclobutyl}-1,2,4-oxadiazol-5-yl)pyridin-2-yl]piperazin-1-yl}propanoic acid]
- IC50 [1]: 2.6 µM
- IC50 [2]: 0.0026 µM

Compound: CC(C)(O)Cn1cc(-c2nc(C3(c4ccc(-c5cnc(N)nc5)nc4)CCC3)no2)cn1 [Example 54, 1-[4-(3-{1-[6-(2-aminopyrimidin-5-yl)pyridin-3-yl]cyclobutyl}-1,2,4-oxadiazol-5-yl)-1H-pyrazol-1-yl]-2-methylpropan-2-ol]
- IC50 [1]: 0.12 µM
- IC50 [2]: 0.028 µM

Compound: Nc1ncc(-c2ccc(C3(c4noc(-c5cnn(C6COC6)c5)n4)CCC3)cn2)cn1 [Example 55, 5-[5-(1-{5-[1-(oxetan-3-yl)-1H-pyrazol-4-yl]-1,2,4-oxadiazol-3-yl}-cyclobutyl)pyridin-2-yl]pyrimidin-2-amine]
- IC50 [1]: 0.052 µM
- IC50 [2]: 0.013 µM

Compound: CNC(=O)Cn1cc(-c2nc(C3(c4ccc(-c5cnc(N)nc5)nc4)CCC3)no2)cn1 [Example 58, 2-[4-(3-{1-[6-(2-aminopyrimidin-5-yl)pyridin-3-yl]cyclobutyl}-1,2,4-oxadiazol-5-yl)-1H-pyrazol-1-yl]-N-methylacetamide]
- IC50 [1]: 0.25 µM
- IC50 [2]: 0.022 µM

Compound: CN(C)C(=O)Cn1cc(-c2nc(C3(c4ccc(-c5cnc(N)nc5)nc4)CCC3)no2)cn1 [Example 59, 2-[4-(3-{1-[6-(2-amino-pyrimidin-5-yl)-pyridin-3-yl]-cyclobutyl}-1,2,4-oxadiazol-5-yl)-pyrazol-1-yl]-N,N-dimethyl-acetamide]
- IC50 [1]: 0.61 µM
- IC50 [2]: 0.083 µM

Compound: Nc1ncc(-c2ccc(C3(c4noc(-c5cnc(N6CCNCC6)cn5)n4)CCC3)cn2)cn1 [Example 60, 5-[5-(1-{5-[5-(piperazin-1-yl)pyrazin-2-yl]-1,2,4-oxadiazol-3-yl}cyclobutyl)pyridin-2-yl]pyrimidin-2-amine]
- IC50 [1]: 0.15 µM
- IC50 [2]: 0.0079 µM

Compound: Nc1ncc(-c2ccc(C3(c4noc(-c5ccc(N6CCNCC6)cc5)n4)CCC3)cn2)cn1 [Example 62, 5-[5-(1-{5-[4-(piperazin-1-yl)phenyl]-1,2,4-oxadiazol-3-yl}cyclobutyl)pyridin-2-yl]pyrimidin-2-amine]
- IC50 [1]: 0.072 µM
- IC50 [2]: 0.0026 µM

Compound: CCn1cc(-c2nc(C3(c4ccc(-c5cnc(N)nc5)nc4)CCC3)no2)cn1 [Example 63, 5-(5-{1-[5-(1-ethyl-1H-pyrazol-4-yl)-1,2,4-oxadiazol-3-yl]cyclobutyl}pyridin-2-yl)pyrimidin-2-amine]
- IC50 [1]: 0.19 µM
- IC50 [2]: 0.0088 µM

Compound: CC(C)n1cc(-c2nc(C3(c4ccc(-c5cnc(N)nc5)nc4)CCC3)no2)cn1 [Example 64, 5-[5-(1-{5-[1-(propan-2-yl)-1H-pyrazol-4-yl]-1,2,4-oxadiazol-3-yl}cyclobutyl)pyridin-2-yl]pyrimidin-2-amine]
- IC50 [1]: 0.17 µM
- IC50 [2]: 0.0072 µM

Compound: CC(C)(C(=O)O)n1cc(-c2nc(C3(c4ccc(-c5cnc(N)nc5)nc4)CCC3)no2)cn1 [Example 65, 2-[4-(3-{1-[6-(2-aminopyrimidin-5-yl)pyridin-3-yl]cyclobutyl}-1,2,4-oxadiazol-5-yl)-1H-pyrazol-1-yl]-2-methylpropanoic acid]
- IC50 [1]: > 5 µM
- IC50 [2]: 0.59 µM
